How the values were obtained:
FGF-2 = FGF-2 (Homo sapiens, UniProt P09038); test: Competition with biotinylated TS3R domain for binding to immobilized FGF-2 (DELFIA); conditions: for % TS3R/FGF-2 binding vs. control: control = 100% binding, average of 3 experiments
Excerpt: For the evaluation of the binding of the compounds of the invention to FGF-2, the test described in G. Colombo et al. J. Biol. Chem., 285: 8733, 2010 has been used. In this reference the binding test has been used to assay the binding of compound sm27 to FGF-2. Specifically, the test allows to evaluate the capability of the compounds under examination to compete with the biotinylated TS3R domain (the recombinant part of Thrombospondine 1 (TSP-1) containing the bond sequence for FGF-2), for the binding to FGF-2 immobilized on a plastic support.
In detail, FGF-2 (0.1 μg) has been immobilized on 96 well plates (DELFIA microtitration plates, Perkin Elmer) leaving into contact for one night at 4° C. by using known techniques. After saturation of the non specific sites with 1% BSA, the compounds to be tested and then the biotinylated TS3R domain (10 nM) in PBS 1% BSA were added. After a period of incubation of 3 hours, the plate was washed and treated with Eu-Labeled Streptavidin 1:1000 and incubated again for one further hour. The amount of TS3R bound to FGF was determined with DELFIA Enhancement Solution, measuring the resolved fluorescence (Victor, PerkinElmer).
The test was carried out on the compounds of examples 2, 4, 8, 10 and 12. The used concentrations were respectively of 10 and 100 μM. The obtained results are reported in Table 1 and have been expressed as inhibition percentage of the TS3R/FGF-2 binding induced by the compounds of the invention vs. the control (TS3R/FGF-2 binding in the absence of the compounds of the invention). As a reference compound sm27 was used and assayed at a concentration of 100 μM. […] The compounds of the invention in this test are as effective as sm27 at the assayed dose of 100 μM.
By using the test in vitro described in example 17 the binding to FGF-2 of the compounds (2p) and (2r) having the formulas herein below reported, has been assayed. These compounds are disclosed by G. A. Pinna et al. on Il Farmaco 58 (2003) 749-763.

BAEC cells [1] = test: Inhibition of the proliferation of endothelial cells induced by FGF-2 (Crystal Violet); type: cell-based, Bovine; conditions: FGF-2 5 ng/ml, 72 h
Method: BAEC cells (25000/ml) in DMEM 1.5% FCS were sown in 96 well plates. After 24 h the culture medium was substituted with DMEM 0.5% FCS containing the compounds of the invention at different concentrations in the range indicated herein below, and FGF-2 (5 ng/ml) or 10% FCS, added as stimulator of the cellular proliferation. After 72 h of incubation, the cells were fixed and stained with Crystal Violet, (Sigma). The stain was then eluted by using a solution 1:1 of ethanol and sodium citrate 0.1M and the absorption of the solution determined at the wave length of 540 nm.
In this test the compounds of examples 2, 4, 8 and 10 were used. For each compound several concentrations comprised between 10 and 100 μM were prepared. The obtained results are reported in Table 3 and have been given as percent reduction of the cellular proliferation of endothelial cells in the presence of FGF-2, induced by the compounds of the invention, with respect to the control (proliferation in the presence of FGF-2 only).

[2] = target: T1, FGF-2 binding to BAEC cells (Bovine Aortic Endothelial Cells) (Homo sapiens, UniProt P09038); test: Inhibition of the binding of europium-labelled FGF-2 to endothelial cells; type: cell-based; conditions: 100 μM; control = 100% binding; average of 3 experiments
T1 construct: host or cells: added exogenously to BAEC (Bovine Aortic Endothelial Cells)
T1 sequence (P09038 143-288): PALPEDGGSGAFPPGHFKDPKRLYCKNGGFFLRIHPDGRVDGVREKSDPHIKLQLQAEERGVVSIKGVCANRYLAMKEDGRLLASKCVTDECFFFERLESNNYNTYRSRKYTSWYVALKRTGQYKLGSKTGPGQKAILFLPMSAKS
Method: Sub-confluent BAEC cells (Bovine Aortic Endothelial Cells), in 96 well plates, were incubated with DMEM without serum for 30 minutes at 4° C. The compound of the invention to be assayed and FGF-2, labelled with europium (FGF-Eu, 10 ng/ml), were added in DMEM containing 0.15% gelatine and HEPES 25 mM. The plate was incubated for 2 hours at 4° C. After washings with cold medium, the amount of FGF-Eu bound to the cells was determined with DELFIA Enhancement Solution by measuring the time resolved fluorescence (Victor, PerkinElmer).
The compounds obtained in examples 2, 4, 8 and 10 were used at a concentration of 100 μM. As a reference the compound sm27 was used. The obtained results are reported in Table 2 and are expressed as inhibition percentage of the FGF-2 binding to endothelial cells induced by the compounds of the invention and by sm27 vs. the control (FGF-2 bond to endothelial cells in absence of inhibition). The value obtained with the control was assumed as 100% binding.
Example 18 has been repeated by using the two compounds of the prior art (2p) and (2r).

[3] = system: Aorta sections (angiogenesis induced by FGF-2); test: Angiogenesis test ex vivo (aorta section), FGF-2 induced sprouting in Matrigel; type: cell-based, C57BL/6 mice; conditions: for Sprouting area (% vs. control): FGF-2 30 ng/ml, eleven days, control = 100%
Method: Aorta sections (aorta rings of about 1 mm) taken from C57BL/6 mice, are dipped in a Matrigel gel (BD Biosciences), in 96 well plates, in DMEM 5% FCS containing FGF-2 (30 ng/ml) together with the compounds of the invention at concentrations in the range indicated herein below. By using an inverted microscope (IX70; Olympus) after some days it is observed in the plate the formation of a network of capillary structures irradiating from the aorta section. Images were taken and analyzed by ImageJ 1.41. After eleven days from the beginning of the experiment the angiogenic response is quantified as sprouting area, therefore subtracting the area of the aorta section.
The compounds of the examples 2, 4 and 10 and, as a reference, the reference compound sm27 at concentrations comprised between 50 and 100 μM were used. In Table 4 the results are reported, expressed as a percent variation (decrease) of the sprouting area with respect to that of the control (presence of FGF-2 only).
In FIG. 1 the aorta sections are reported, analyzed after eleven days in absence (left photo—(a)) or in the presence (right photo (b)) of the compound obtained in example 10 (concentration 100 μM). […]

BAEC cells [4] = test: Inhibition of the proliferation of endothelial cells induced by FGF-2 (Crystal Violet); type: cell-based, Bovine; conditions: Table 6; 100 μM; expressed as in Table 2; average of 3 experiments

Chain of FGF-2 (P09038 143-288, species assumed): as the sequence (P09038 143-288) above

Row | SMILES | % TS3R/FGF-2 binding vs. control (FGF-2; 10 μM) [%] | % TS3R/FGF-2 binding vs. control (FGF-2; 100 μM) [%] | Inhibition of the FGF-2 binding to endothelial cells (% binding FGF-2/endothelial cells vs. control) [2] [%] | Cell proliferation (% vs. control) (BAEC cells [1]; 10 μM, control = 100%) [%] | Cell proliferation (% vs. control) (BAEC cells [1]; 50 μM, control = 100%) [%] | Cell proliferation (% vs. control) (BAEC cells [1]; 100 μM) [%] | Sprouting area (% vs. control) ([3]; 50 μM) [%] | Sprouting area (% vs. control) ([3]; 75 μM) [%] | Sprouting area (% vs. control) ([3]; 100 μM) [%] | Cell proliferation (% vs. control) (BAEC cells [4]) [%] | Binding to FGF-2 / inhibition of TS3R/FGF-2 binding, in words (FGF-2; 100 μM) | Inhibition of the angiogenesis induced by FGF-2 (aorta ring), in words [3]
1 | CN(CCCNC(=O)c1nn(-c2ccccc2)c2c1Cc1ccccc1-2)CCCNC(=O)c1nn(-c2ccccc2)c2c1Cc1ccccc1-2 [Compound (2p), reference compound] | – | 96 ± 3 | – | – | – | – | – | – | 95.5 ± 5 | 97 ± 4 | do not show any significant binding to FGF-2 | do not result active in inhibiting the angiogenesis induced by FGF-2
2 | O=C(Nc1ccc2cc(S(=O)(=O)O)cc(O)c2c1)Nc1ccc2cc(S(=O)(=O)O)cc(O)c2c1 [sm27, reference compound] | – | 17 ± 5 | 40 ± 2 | – | – | 60 ± 6 | – | – | 44.0 ± 8 | – | – | –
3 | CN(CCCNC(=O)c1nn(-c2ccc(Cl)cc2Cl)c2c1Cc1ccccc1-2)CCCNC(=O)c1nn(-c2ccc(Cl)cc2Cl)c2c1Cc1ccccc1-2 [Compound (2r), reference compound] | – | 98 ± 6 | – | – | – | – | – | – | 91.1 ± 6 | 94 ± 6 | do not show any significant binding to FGF-2 | do not result active in inhibiting the angiogenesis induced by FGF-2

Further lines, with some results ahead:

Row | % TS3R/FGF-2 binding vs. control (FGF-2; 10 μM) [%] | % TS3R/FGF-2 binding vs. control (FGF-2; 100 μM) [%] | Inhibition of the FGF-2 binding to endothelial cells (% binding FGF-2/endothelial cells vs. control) [2] [%] | SMILES | Cell proliferation (% vs. control) (BAEC cells [1]; 10 μM, control = 100%) [%] | Cell proliferation (% vs. control) (BAEC cells [1]; 50 μM, control = 100%) [%] | Cell proliferation (% vs. control) (BAEC cells [1]; 100 μM) [%] | Sprouting area (% vs. control) ([3]; 50 μM) [%] | Sprouting area (% vs. control) ([3]; 75 μM) [%] | Sprouting area (% vs. control) ([3]; 100 μM) [%] | Cell proliferation (% vs. control) (BAEC cells [4]) [%] | Binding to FGF-2 / inhibition of TS3R/FGF-2 binding, in words (FGF-2; 100 μM) | Inhibition of the angiogenesis induced by FGF-2 (aorta ring), in words [3]
4 | 25 ± 3 | 13 ± 3 | 22 ± 3 | O=C(NCCCNC(=O)c1nn(-c2ccc(Cl)cc2Cl)c2c1Cc1cc(S(=O)(=O)O)sc1-2)c1nn(-c2ccc(Cl)cc2Cl)c2c1Cc1cc(S(=O)(=O)O)sc1-2 [Example 2, 3,3′-(propane-1,3-diylbis(azanediyl))bis(oxomethylene)bis(1-(2,4-dichlorophenyl)-1,4-dihydro-thieno[3′,2′:4,5]cyclopenta[1,2-c]pyrazole-6-sulfonic acid)] | 90 ± 3 | 20 ± 4 | 8 ± 3 | 43.9 ± 9 | 10.5 ± 5 | 1.8 ± 0.7 | – | – | –
5 | 40 ± 2 | 20 ± 1 | 30 ± 3 | O=C(NCCCCCCNC(=O)c1nn(-c2ccc(Cl)cc2Cl)c2c1Cc1cc(S(=O)(=O)O)sc1-2)c1nn(-c2ccc(Cl)cc2Cl)c2c1Cc1cc(S(=O)(=O)O)sc1-2 [Example 4, 3,3′-(hexane-1,6-diylbis(azanediyl))bis(oxomethylene)bis(1-(2,4-dichlorophenyl)-1,4-dihydro-thieno[3′,2′:4,5]cyclopenta[1,2-c]pyrazole-6-sulfonic acid)] | 92 ± 4 | 70 ± 6 | 30 ± 7 | – | 21.0 ± 5 | 15.8 ± 4 | – | – | –
6 | 61 ± 5 | 25 ± 4 | 28 ± 4 | Cc1ccc(Cn2nc(C(=O)NCCCCCCNC(=O)c3nn(Cc4ccc(C)cc4)c4c3Cc3cc(S(=O)(=O)O)sc3-4)c3c2-c2sc(S(=O)(=O)O)cc2C3)cc1 [Example 8, 3,3′-(hexane-1,6-diylbis(azanediyl))bis(oxomethylene)bis(1-(4-methylbenzyl)-1,4-dihydro-thieno[3′,2′:4,5]cyclopenta[1,2-c]pyrazole-6-sulfonic acid)] | 95 ± 2 | 80 ± 4 | 36 ± 5 | – | – | – | – | – | –

— patent publication US9181196B2, “Pharmaceutical compounds” (KEMOTECH S.r.l., priority 2013, dated 2015)
